Source: patent US12642798B2, “Aripiprazole prodrug composition” (ALKERMES PHARMA IRELAND LIMITED, priority 2014, dated 2026)

Assay: Particle size analysis by laser light scattering (Horiba)
Assay type: physicochemical
Conditions: solid particulate form prior to milling
From the text: The term “particle size” or “volume based particle size” or “volume based particle size distribution” as used herein is equivalent to and also referred to as the Dv50 or D50 and means that at least about 50% of the aripiprazole prodrug particles have a diameter of less than the size specified. The aforementioned terms are used interchangeably herein. For example a volume based particle size (Dv50) of less than 1000 nm, means that 50% of the particle population has a diameter of less than 1000 nm when measured by static or dynamic light scattering techniques known to those skilled in the art. […] Unless otherwise specified, all particle sizes are specified in terms of volume based measurements and are measured by laser light scattering/diffraction. Particle sizes are then determined based on Mie scattering theory. More specifically, unless otherwise specified, volume based particle size (Dv50) is determined using a Horiba LA-950 standard model laser particle size analyser. Deionized water or water with a small quantity (for example 0.1% w/w) of surface stabilizer (for example polysorbate 20) is used as the sizing medium unless otherwise specified. […]
The particle size of the present composition may be measured using techniques such as light scattering with either water or a dilute surface stabilizer solution as the diluent. […]

SMILES | particle size (Dv50) prior to milling
CCCCCC(=O)OCN1C(=O)CCc2ccc(OCCCCN3CCN(c4cccc(Cl)c4Cl)CC3)cc21 [aripiprazole cavoxil, (7-(4-(4-(2,3-Dichlorophenyl)piperazin-1-yl)butoxy)-2-oxo-3,4-dihydroquinolin-1(2H)yl)methyl hexanoate] | greater than 8 microns
CCCCCCCCCCCC(=O)OCN1C(=O)CCc2ccc(OCCCCN3CCN(c4cccc(Cl)c4Cl)CC3)cc21 [aripiprazole lauroxil, Dodecanoic acid, [7-[4-[4-(2,3-dichlorophenyl)-1-piperazinyl]butoxy]-3,4-dihydro-2-oxo-1(2H)-quinolinyl]methyl ester] | greater than 10 microns
